This data set is described as follows: gradient 5% acetonitrile 3 min, to 50% in 2 min, to 85% in 15 min, held 3 min, 100 µL/min. The following applies: column: Zorbax Extend-C18 2.1 x 50 mm; eluents: water / acetonitrile, 0.1% formic acid. The gist of the method:
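Values are retention times taken from adduct peaks that software picked and an analyst inspected. The pure standards were run as mixtures of ~100 molecules on HPLC linked to a quadrupole time-of-flight mass spectrometer, in positive and negative ionization mode. A Zorbax Extend-C18 column (2.1 × 50 mm, 1.8 μm) was used at 100 μL/min with water and acetonitrile, each including 0.1% formic acid.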
`Cc1ccn2cc(-c3ccc(NC(=O)c4ccccc4)cc3)nc2n1` gave an RP-LC retention time of 636 s.
The same measure for `COc1ccc(-c2nc3ncccn3c2NCc2ccccc2)cc1`: 717 s; for `O=C(Cn1nc2c3cc(-c4ccccc4)nn3ccn2c1=O)NCc1ccco1`: 792 s; for `COc1cc(C(=O)N2CCN(c3cc(-c4ccc(Cl)cc4)[nH]n3)CC2)cc(OC)c1OC`: 827 s.
The same measure for `COc1ccc(NC(=O)N2CCC3(C2)C(=O)Nc2ccc(OC)cc23)cc1` (stereo not drawn): 697 s; for `COc1ccc(-c2noc(C3CCCN3C(=O)Nc3ccc(OC)c(Cl)c3)n2)cc1` (stereo not drawn): 974 s; for `O=C(NCCn1nnc2cc(C(=O)N3CCCC3)ccc21)Nc1ccccc1`: 616 s.
In the case of `COc1ccc(S(=O)(=O)N2CCCC(C(=O)N3CCOCC3)C2)cc1OC` (stereo not drawn), the RP-LC retention time amounted to 681 s.
For the compound `CNC(=O)Nc1ccc(C2(C(=O)Nc3cc(C)cc(C)c3)CCC2)cc1`, the RP-LC retention time is 822 s.
The same measure for `CCn1c(=O)c2ccn(CC(=O)NCc3cc(OC)ccc3OC)c2n(CC)c1=O`: 811 s.
`O=C(NCc1ccc(F)cc1Cl)C1CCCN(c2nn3c(=O)c4c(nc3s2)CCCC4)C1` (stereo not drawn): the RP-LC retention time was determined as 827 s.
The same measure for `COc1ccc(-n2nnc(-c3nc(-c4cc(OC)ccc4OC)cs3)c2C)cc1`: 1140 s.
`NS(=O)(=O)c1ccc(NS(=O)(=O)c2ccc3onc(C(=O)N4CCCCC4)c3c2)cc1` yielded an RP-LC retention time of 782 s.
The same measure for `Cc1noc(-c2ccc(OC3CN(C(=O)NCC(C)C)C3)cc2)n1`: 781 s; for `CCc1ccc(C2=C(C)C(N3CCCN(C(=O)NC)CC3)=NS2(=O)=O)cc1`: 746 s.
Compound `NS(=O)(=O)c1ccc(CCNC(=O)c2ccc3c(c2)NC(=O)C2CCCCN32)cc1` (stereo not drawn) gave an RP-LC retention time of 672 s.
The same measure for `O=C(CN1C(=O)NC(c2ccc(Cl)cc2)C2=C1COC2=O)NCc1ccc(F)cc1` (stereo not drawn): 771 s; for `COCCNC(=O)N1CCCN(C2=NS(=O)(=O)C(c3cccc(Cl)c3)=C2C)CC1`: 706 s.
`CC(C)NC(=O)N1CC=C(c2cn(C(C)C)c3ncccc23)CC1` had an RP-LC retention time of 632 s.
The same measure for `CCC(C)NC(=O)CCn1c(=O)c2ccccc2n2c(=O)n(Cc3ccc(F)cc3)nc12` (stereo not drawn): 890 s; for `O=C(c1cn(-c2cc(N3CCSCC3)ncn2)cn1)N1CCN(c2ncccn2)CC1`: 739 s.
The same measure for `Cc1cc(C)cc(NC(=O)NC2CCN(c3cc(N4CCCC4)cnn3)C2)c1` (stereo not drawn): 690 s.
In turn, `Cc1cccc(NC(=O)N2CCCC(C)(C(=O)NCc3ccc(F)cc3)C2)c1C` (stereo not drawn) yielded an RP-LC retention time of 929 s.
Consider `Cn1c(N2CCC(C(=O)NCCCN3CCC(Cc4ccccc4)CC3)CC2)cc(=O)n(C)c1=O`, for which the RP-LC retention time is 631 s.
The same measure for `COc1ccc(CNC(=O)Cc2cn(C)c3ncccc23)c(OC)c1`: 676 s; for `CCc1nc(OCC(=O)Nc2ccc(Br)cc2F)c2ccccc2n1`: 910 s.
Consider `O=C(c1cccn1Cc1noc(C2CC2)n1)N1CCc2ccccc21`, for which the RP-LC retention time was 982 s.
As to `CCOc1ccccc1-c1noc(Cn2c(=O)n(CC)c(=O)c3ccccc32)n1`, the RP-LC retention time turned out to be 983 s.
As for `COc1ccccc1-c1nc2cnccn2c1NCCC(=O)N1CCc2ccccc21`, the RP-LC retention time turned out to be 772 s.
In the case of `O=C(NCc1cccnc1)c1ccc(CN2CCN(Cc3ccc(F)cc3)C(=O)C2=O)cc1`, the RP-LC retention time stood at 597 s.
`CS(=O)(=O)N1CCC(CNC(=O)CSCc2ccccc2)CC1` yielded an RP-LC retention time of 691 s.
The same measure for `Cc1cccc(N(C)C(=O)C(C)n2cnc3nc4c(cc3c2=O)CCCC4)c1` (stereo not drawn): 762 s; for `CCOc1ccc(CNC(=O)C2CCN(C(=O)C3Sc4ccccc4NC3=O)CC2)cc1` (stereo not drawn): 743 s.
The same measure for `CCN1CCCn2nc(C3CCN(C(=O)c4cccc(C(F)(F)F)c4)CC3)cc2C1=O`: 785 s; for `Cc1ccc(N2CCN(c3ncc(C(=O)O)c(C)n3)CC2)cc1`: 863 s; for `COc1cc2c(cc1C(=O)NCCOc1ccc(Cl)cc1)OCCCO2`: 982 s.
In the case of `CC(C)n1c(-c2cccc(C(=O)NC3CCCC3)c2)nc2cccnc21`, the RP-LC retention time turned out to be 796 s.
Next, `CCc1nnc(-c2ccc3ccn(CC(=O)NCCc4cccs4)c3c2)o1`: 781 s; `CCn1cc(S(=O)(=O)Nc2ccc(C)c(C)c2)c2cccnc21`: 887 s; `CC(=O)N1CCc2c([nH]c3ccccc23)C12C(=O)N(C)c1ccc(Br)cc12` (stereo not drawn): 857 s.
As to `CCn1cc(C2=CCN(C(=O)Cc3ccc(F)cc3)CC2)c2cccnc21`, the RP-LC retention time came to 876 s.
The same measure for `Cc1ccc(-c2nc(-c3ccc(-n4ccnc4)nc3)no2)cc1`: 794 s.
The same measure for `Cc1cc(NC(=O)C(=O)NCCCn2ccnc2)ccc1Br`: 659 s.
For `CCOCCCNC(=O)Cn1ncc2c(N3CCN(c4ccccn4)CC3)ncnc21`, the RP-LC retention time is 565 s.
With `O=C(Nc1ccc(F)c(Cl)c1)c1c(O)c2cccnc2n(Cc2ccccc2)c1=O`, the RP-LC retention time stood at 1230 s.
`Cc1ccccc1CNC(=O)C1(C)CCCN(C(=O)Nc2ccc3c(c2)OCCO3)C1` (stereo not drawn) displayed an RP-LC retention time of 846 s.
The compound `COc1ccc(-n2cc(C(=O)OCc3ccco3)c3ccccc3c2=O)cc1` registered an RP-LC retention time of 970 s.
Compound `Cc1ccc2nc(NC(=O)Cn3c(=O)n(C(C)C)c4ccc(-c5noc(C)n5)cc43)sc2c1` came in with an RP-LC retention time of 948 s.
Next, `Cn1cc(C(=O)Nc2ccc3c(c2)OCO3)c2cccnc21`: 730 s; `CC1=C(c2ccc(C)c(C)c2)S(=O)(=O)N=C1N1CCC(NC(=O)NC(C)(C)C)CC1`: 1350 s.
The compound `COc1ccccc1-c1c(C)nn2c(N3CCN(c4ccccn4)CC3)cc(C)nc12` returned an RP-LC retention time of 604 s.
The same measure for `Cc1ccc(S(=O)(=O)N2c3ccccc3NC3=C(C(=O)CCC3)C2c2ccco2)cc1C` (stereo not drawn): 860 s.
The same measure for `CCC(CC)C(=O)Nc1nc(-c2ccc3c(c2)NC(=O)CO3)c(C)s1`: 910 s.
For the compound `Cn1cc(S(=O)(=O)N2CCC(C(=O)Nc3ccccn3)CC2)cc1C(=O)N1CCCC1`, the RP-LC retention time is 635 s.
For `O=C(Cn1cnc2nc(N3CCCC(C(=O)NC4CC4)C3)sc2c1=O)Nc1ccc(F)cc1F` (stereo not drawn), the RP-LC retention time came out at 673 s.
For `COc1ccc(CNC(=O)C2(c3ccc(NC(C)=O)cc3)CCC2)cc1`, the RP-LC retention time worked out at 728 s.
The same measure for `CN1C(=O)C2CCCCN2c2ccc(C(=O)NCCN3CCOCC3)cc21` (stereo not drawn): 582 s.
Next, `Cc1ccc(C)c(NC(=O)CN2C(=O)NC3(CCC(C)CC3)C2=O)c1` (stereo not drawn): 777 s; `COc1cccc(CNC(=O)Cn2c(=O)c3c(C(=O)N4CCCCC4)cc(C)nc3n(C)c2=O)c1`: 778 s; `CCc1noc(-c2cccnc2N2CCCN(Cc3ccc(F)cc3Cl)CC2)n1`: 700 s.
In the case of `O=C(CN1CCCCC1c1nc(C2CC2)no1)Nc1ccccn1` (stereo not drawn), the RP-LC retention time came out at 734 s.
Next, `Clc1ccccc1-c1nc(-c2ccc(-n3cccn3)nc2)no1`: 1270 s.
Next, `O=c1c2sccc2n(Cc2nc(-c3ccccc3)no2)c(=O)n1-c1cccc(F)c1`: 959 s; `COc1ccc(C2CN(S(=O)(=O)c3ccccc3F)CCN2C)cc1` (stereo not drawn): 670 s; `CCC(=O)Nc1ccc2c(c1)CN(C(=O)c1ccccc1Cl)C(C(=O)N1CCCC1)C2` (stereo not drawn): 714 s.
In turn, `Fc1ccc(Cc2nc(-c3ccn4cnnc4c3)no2)cc1` had an RP-LC retention time of 764 s.
Next, `COc1ccc(C(=O)N2CCCCC2c2nncn2CC2CC2)cc1F` (stereo not drawn): 718 s; `CCOc1ccc(-c2cn3ccn(-c4ccc(OC)c(OC)c4)c(=O)c3n2)cc1`: 781 s; `COc1ccc(-c2nc(C)c(C(=O)O)s2)cc1OC`: 730 s.
Compound `O=C(Nc1ccc(Br)cc1F)C1CCN(C(=O)c2cccn2-c2cccnc2)CC1` had an RP-LC retention time of 782 s.
The same measure for `CC(CNC(=O)CCS(=O)(=O)c1ccc2c(c1)CCN2C(=O)C1CC1)c1ccccc1` (stereo not drawn): 840 s; for `COc1ccccc1C(=O)N1CCC2(CC1)NC(=O)c1cc(C)ccc1N2C`: 732 s; for `O=C(Cn1nc(N2CCCCCC2)c2ccccc2c1=O)Nc1ccc(Cl)cc1`: 1160 s.
On to `Cc1nc(-c2cc(S(=O)(=O)NCc3cc(F)cc(F)c3)c(C)s2)cs1`, for which the RP-LC retention time was determined as 994 s.
The same measure for `CCOC(=O)c1cnc2nc(C)ccc2c1Nc1cc(OC)ccc1OC`: 709 s; for `Cc1ccc(Cn2nc3ccc(S(=O)(=O)N4CCCCCC4)cn3c2=O)cc1C`: 1070 s; for `CC(=O)N1c2ccc(S(=O)(=O)N3CCCCCC3)cc2CC1C(=O)NCc1ccc(C)cc1` (stereo not drawn): 929 s.
The same measure for `CNC(=O)[C@H]1C[C@H](Oc2ccccc2)CN1C(=O)CCc1nc2ccccc2s1`: 759 s.

These data come from the METLIN SMRT retention time set (Domingo-Almenara et al. 2019).
